# Measured values taken from ChEMBL document CHEMBL5321293, “Discovery of ERD-3111 as a Potent and Orally Efficacious Estrogen Receptor PROTAC Degrader with Strong Antitumor Activity” (J Med Chem, 2023).
# Tests used:
# [1] = biological target: T1, Protein cereblon/Estrogen receptor (Homo sapiens, UniProt P03372+Q96SW2); test: Protac activity at human ERalpha in human MCF7 cells assessed as induction of ERalpha degradation by measuring maximum efficacy at 1 uM incubated for 12 hrs by ICW blot assay relative to control; type: cell-based
# Target sequence in this assay (P03372 whole entry, looked up): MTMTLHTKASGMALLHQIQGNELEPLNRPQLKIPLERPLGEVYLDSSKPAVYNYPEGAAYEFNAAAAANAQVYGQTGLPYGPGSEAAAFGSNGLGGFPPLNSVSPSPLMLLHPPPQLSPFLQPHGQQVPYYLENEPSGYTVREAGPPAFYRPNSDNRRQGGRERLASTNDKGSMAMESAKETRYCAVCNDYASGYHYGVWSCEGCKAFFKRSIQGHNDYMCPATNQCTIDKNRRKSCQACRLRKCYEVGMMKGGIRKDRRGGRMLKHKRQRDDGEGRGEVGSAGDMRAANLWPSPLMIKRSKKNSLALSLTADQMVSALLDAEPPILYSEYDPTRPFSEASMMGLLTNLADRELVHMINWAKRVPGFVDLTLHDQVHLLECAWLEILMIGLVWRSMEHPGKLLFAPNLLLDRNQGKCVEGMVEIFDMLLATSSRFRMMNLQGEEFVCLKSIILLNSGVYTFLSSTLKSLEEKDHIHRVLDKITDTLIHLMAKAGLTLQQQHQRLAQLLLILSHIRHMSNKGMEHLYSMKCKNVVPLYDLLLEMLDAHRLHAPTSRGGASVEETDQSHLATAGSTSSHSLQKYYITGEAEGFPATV
# Target sequence in this assay (Q96SW2 whole entry, looked up): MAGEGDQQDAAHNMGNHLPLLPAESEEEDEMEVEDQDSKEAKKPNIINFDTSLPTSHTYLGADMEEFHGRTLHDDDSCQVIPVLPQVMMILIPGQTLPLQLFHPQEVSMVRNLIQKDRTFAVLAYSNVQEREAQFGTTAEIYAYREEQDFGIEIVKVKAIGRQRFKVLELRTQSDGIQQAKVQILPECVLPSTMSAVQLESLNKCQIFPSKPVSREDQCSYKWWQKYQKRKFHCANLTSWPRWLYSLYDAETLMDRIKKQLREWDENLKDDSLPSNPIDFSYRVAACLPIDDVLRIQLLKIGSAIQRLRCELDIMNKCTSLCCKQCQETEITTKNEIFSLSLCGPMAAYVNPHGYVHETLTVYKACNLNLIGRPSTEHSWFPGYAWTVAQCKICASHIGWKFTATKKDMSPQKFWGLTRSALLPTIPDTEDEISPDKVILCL
# [2] = biological target: T1, Protein cereblon/Estrogen receptor; test: Protac activity at human ERalpha in human MCF7 cells assessed as protein degradation incubated for 12 hrs by ICW blot assay; type: cell-based
# Target sequence in this assay (P03372 whole entry): as the sequence (P03372 whole entry, looked up) above
# Target sequence in this assay (Q96SW2 whole entry): as the sequence (Q96SW2 whole entry, looked up) above
# [3] = Clearance in Sprague-Dawley rat at 1 mg/kg, iv and measured upto 24 hrs by LC-MS/MS analysis; conditions: in vivo
# in vivo [4] = conditions: Sprague-Dawley, rat, po, 3 mg/kg
# [5] = Volume of distribution at steady state in Sprague-Dawley rat at 1 mg/kg, iv and measured upto 24 hrs by LC-MS/MS analysis; conditions: in vivo
# [6] = Half life in Sprague-Dawley rat at 3 mg/kg, po and measured upto 24 hrs by LC-MS/MS analysis; conditions: in vivo
# in vivo [7] = conditions: Sprague-Dawley, rat, po, 3 mg/kg; remark: listed apart in the source
# [8] = AUC in Sprague-Dawley rat at 3 mg/kg, po and measured upto 24 hrs by LC-MS/MS analysis; type: ADME, organism-based; design: dose 3 mg/kg, time < 24 hrs, route po; conditions: Sprague-Dawley, in vivo
# [9] = Oral bioavailability in ICR mouse at 3 mg/kg and measured upto 24 hrs by LC-MS/MS analysis; type: ADME, organism-based; conditions: in vivo
# [10] = Volume of distribution at steady state in ICR mouse at 1 mg/kg, iv and measured upto 24 hrs by LC-MS/MS analysis; type: ADME, organism-based; conditions: in vivo, read-out: Vdss
# [11] = Half life in ICR mouse at 3 mg/kg, po and measured upto 24 hrs by LC-MS/MS analysis; type: ADME, organism-based; conditions: in vivo
# [12] = AUC in ICR mouse at 3 mg/kg, po and measured upto 24 hrs by LC-MS/MS analysis; type: ADME, organism-based; design: dose 3 mg/kg, time < 24 hrs, route po; conditions: in vivo
# [13] = Cmax in ICR mouse at 3 mg/kg, po and measured upto 24 hrs by LC-MS/MS analysis; type: ADME, organism-based; design: dose 3 mg/kg, time < 24 hrs, route po; conditions: in vivo
# [14] = Clearance in ICR mouse at 1 mg/kg, iv and measured upto 24 hrs by LC-MS/MS analysis; type: ADME, organism-based; conditions: in vivo
# [15] = Plasma concentration in Sprague-Dawley rat at 3 mg/kg,po and mesured after 6 hrs by LC-MS/MS analysis; type: ADME, organism-based
# [16] = Plasma concentration in Sprague-Dawley rat at 3 mg/kg,po and mesured after 3 hrs by LC-MS/MS analysis; type: ADME, organism-based
# [17] = Plasma concentration in Sprague-Dawley rat at 3 mg/kg,po and mesured after 1 hrs by LC-MS/MS analysis; type: ADME, organism-based
Emax [1],DC50 [2],SMILES,other results
88%,2 nM,C[C@@H]1Cc2c(ccc3[nH]ncc23)[C@@H](c2c(F)cc(N3CCC4(CCN(C(=O)CN5Cc6cc7c(cc6C5)C(=O)N(C5CCC(=O)NC5=O)C7=O)CC4)CC3)cc2F)N1CC(F)(F)F (stereo not given in full),
64%,19 nM,O=C1CCC(N2C(=O)c3cc4c(cc3C2=O)CN(CC2CCN(CC3CN(c5ccc([C@@H]6c7ccc(O)cc7CC[C@@H]6c6ccccc6)cc5)C3)CC2)C4)C(=O)N1 (stereo not given in full),
84%,6 nM,O=C1CCC(N2C(=O)c3cc4c(cc3C2=O)CN(CC2CN(C(=O)C3CCN(c5ccc([C@@H]6c7ccc(O)cc7CC[C@@H]6c6ccccc6)cc5)CC3)C2)C4)C(=O)N1 (stereo not given in full),
107%,3.8 nM,C[C@@H]1Cc2c(ccc3[nH]ncc23)[C@@H](c2ccc(N3CCC4(CCN(C(=O)CN5Cc6cc7c(cc6C5)C(=O)N(C5CCC(=O)NC5=O)C7=O)CC4)CC3)cn2)N1CC(F)(F)F (stereo not given in full),clearance at 24 h [3]: 27 mL/min/kg; bioavailability at 24 h (in vivo [4]): 14%; Vd at 24 h [5]: 3.7 L/kg; half-life at 24 h [6]: 2.3 h; Cmax at 24 h (in vivo [7]): 51.8 ng/mL; AUC at 24 h [8]: 243 ng·h/mL
40%,> 1000 nM,O=C1CCC(N2C(=O)c3cc4c(cc3C2=O)CN(C(=O)C2CCN(CC3CN(c5ccc([C@@H]6c7ccc(O)cc7CC[C@@H]6c6ccccc6)cc5)C3)CC2)C4)C(=O)N1 (stereo not given in full),
79%,171 nM,O=C1CCC(N2C(=O)c3cc4c(cc3C2=O)CN(CCCC2CCN(c3ccc([C@@H]5c6ccc(O)cc6CC[C@@H]5c5ccccc5)cc3)CC2)C4)C(=O)N1 (stereo not given in full),
95%,1.6 nM,O=C1CCC(N2C(=O)c3cc4c(cc3C2=O)CN(C2CCN(C(=O)C3CCN(c5ccc([C@@H]6c7ccc(O)cc7CC[C@@H]6c6ccccc6)cc5)CC3)CC2)C4)C(=O)N1 (stereo not given in full),clearance at 24 h [3]: 23.1 mL/min/kg; bioavailability at 24 h (in vivo [4]): 10%; Vd at 24 h [5]: 2 L/kg; half-life at 24 h [6]: 2.7 h; Cmax at 24 h (in vivo [7]): 40.6 ng/mL; AUC at 24 h [8]: 206 ng·h/mL
90%,5.5 nM,O=C1CCC(N2C(=O)c3cc4c(cc3C2=O)CN(CC(=O)N2CCC3(CC2)CCN(c2ccc([C@@H]5c6ccc(O)cc6CC[C@@H]5c5ccccc5)cc2)CC3)C4)C(=O)N1 (stereo not given in full),bioavailability [9]: 35%; clearance at 24 h [3]: 20 mL/min/kg; Vd [10]: 2.2 L/kg; half-life [11]: 3.1 h; bioavailability at 24 h (in vivo [4]): 13%; Vd at 24 h [5]: 1.6 L/kg; half-life at 24 h [6]: 2.5 h; AUC at 24 h [12]: 550 ng·h/mL; Cmax at 24 h (in vivo [7]): 69.5 ng/mL; Cmax [13]: 146 ng/mL; clearance [14]: 31 mL/min/kg; AUC at 24 h [8]: 328 ng·h/mL
112%,14 nM,C[C@@H]1Cc2c(ccc3[nH]ncc23)[C@@H](c2ccc(N3CCC4(CCN(C(=O)CN5Cc6cc7c(cc6C5)C(=O)N(C5CCC(=O)NC5=O)C7=O)CC4)CC3)cn2)N1CC(F)F (stereo not given in full),
87%,32 nM,O=C1CCC(N2C(=O)c3cc4c(cc3C2=O)CN(CC2CCN(C(=O)C3CN(c5ccc([C@@H]6c7ccc(O)cc7CC[C@@H]6c6ccccc6)cc5)C3)CC2)C4)C(=O)N1 (stereo not given in full),
68%,1.8 nM,O=C1CCC(N2C(=O)c3cc4c(cc3C2=O)CN(CC(=O)N2CCC3(CC2)CN(c2ccc([C@@H]5c6ccc(O)cc6CC[C@@H]5c5ccccc5)cc2)C3)C4)C(=O)N1 (stereo not given in full),
75%,4.6 nM,O=C1CCC(N2C(=O)c3cc4c(cc3C2=O)CN(CC(=O)N2CCC3(CCN(c5ccc([C@@H]6c7ccc(O)cc7CC[C@@H]6c6ccccc6)cc5)CC3)C2)C4)C(=O)N1 (stereo not given in full),
67%,236 nM,O=C1CCC(N2C(=O)c3cc4c(cc3C2=O)CN(CCCCC2CCN(c3ccc([C@@H]5c6ccc(O)cc6CC[C@@H]5c5ccccc5)cc3)CC2)C4)C(=O)N1 (stereo not given in full),
50%,989 nM,O=C1CCC(N2C(=O)c3cc4c(cc3C2=O)CN(C2CN(CC3CCN(c5ccc([C@@H]6c7ccc(O)cc7CC[C@@H]6c6ccccc6)cc5)CC3)C2)C4)C(=O)N1 (stereo not given in full),
57%,295 nM,O=C1CCC(N2C(=O)c3cc4c(cc3C2=O)CN(C2CCN(CC3CN(c5ccc([C@@H]6c7ccc(O)cc7CC[C@@H]6c6ccccc6)cc5)C3)CC2)C4)C(=O)N1 (stereo not given in full),
59%,21 nM,O=C1CCC(N2C(=O)c3cc4c(cc3C2=O)CN(CC2CN(CC3CCN(c5ccc([C@@H]6c7ccc(O)cc7CC[C@@H]6c6ccccc6)cc5)CC3)C2)C4)C(=O)N1 (stereo not given in full),
50%,1000 nM,O=C1CCC(N2C(=O)c3cc4c(cc3C2=O)CN(CCC2CCN(c3ccc([C@@H]5c6ccc(O)cc6CC[C@@H]5c5ccccc5)cc3)CC2)C4)C(=O)N1 (stereo not given in full),

Emax [1],DC50 [2],SMILES,other results
106%,31 nM,O=C1CCC(N2C(=O)c3cc4c(cc3C2=O)CN(CCCCCC2CCN(c3ccc([C@@H]5c6ccc(O)cc6CC[C@@H]5c5ccccc5)cc3)CC2)C4)C(=O)N1 (stereo not given in full),
101%,129 nM,O=C1CCC(N2C(=O)c3cc4c(cc3C2=O)CN(CCCCCCC2CCN(c3ccc([C@@H]5c6ccc(O)cc6CC[C@@H]5c5ccccc5)cc3)CC2)C4)C(=O)N1 (stereo not given in full),
76%,13 nM,O=C1CCC(N2C(=O)c3cc4c(cc3C2=O)CN(CC2CCN(C(=O)C3CCN(c5ccc([C@@H]6c7ccc(O)cc7CC[C@@H]6c6ccccc6)cc5)CC3)CC2)C4)C(=O)N1 (stereo not given in full),
63%,9.7 nM,O=C1CCC(N2C(=O)c3cc4c(cc3C2=O)CN(C(=O)C2CCN(CC3CCN(c5ccc([C@@H]6c7ccc(O)cc7CC[C@@H]6c6ccccc6)cc5)CC3)CC2)C4)C(=O)N1 (stereo not given in full),
84%,2.3 nM,O=C1CCC(N2C(=O)c3cc4c(cc3C2=O)CN(C2CCN(CC3CCN(c5ccc([C@@H]6c7ccc(O)cc7CC[C@@H]6c6ccccc6)cc5)CC3)CC2)C4)C(=O)N1 (stereo not given in full),bioavailability [9]: 58%; clearance at 24 h [3]: 25.7 mL/min/kg; Vd [10]: 16.2 L/kg; half-life [11]: 9.8 h; bioavailability at 24 h (in vivo [4]): 30%; Vd at 24 h [5]: 8.8 L/kg; half-life at 24 h [6]: 4 h; AUC at 24 h [12]: 1480 ng·h/mL; Cmax at 24 h (in vivo [7]): 54.6 ng/mL; Cmax [13]: 93.3 ng/mL; clearance [14]: 14.2 mL/min/kg; AUC at 24 h [8]: 552 ng·h/mL
97%,0.1 nM,C[C@@H]1Cc2c([nH]c3ccccc23)[C@@H](c2c(F)cc(N3CCC4(CCN(C(=O)CN5Cc6cc7c(cc6C5)C(=O)N(C5CCC(=O)NC5=O)C7=O)CC4)CC3)cc2F)N1CC(F)(F)CO (stereo not given in full),concentration at 6 h [15]: 3 ng/mL; concentration at 3 h [16]: 6.6 ng/mL; concentration at 1 h [17]: 9.3 ng/mL
65%,11 nM,O=C1CCC(N2C(=O)c3cc4c(cc3C2=O)CN(CC(=O)N2CC3(C2)CN(c2ccc([C@@H]5c6ccc(O)cc6CC[C@@H]5c5ccccc5)cc2)C3)C4)C(=O)N1 (stereo not given in full),
23%,> 1000 nM,O=C1CCC(N2C(=O)c3cc4c(cc3C2=O)CN(CC(=O)N2CCC3(C2)CN(c2ccc([C@@H]5c6ccc(O)cc6CC[C@@H]5c5ccccc5)cc2)C3)C4)C(=O)N1 (stereo not given in full),
16%,> 1000 nM,O=C1CCC(N2C(=O)c3cc4c(cc3C2=O)CN(C(=O)CN2CCC3(CC2)CCN(c2ccc([C@@H]5c6ccc(O)cc6CC[C@@H]5c5ccccc5)cc2)CC3)C4)C(=O)N1 (stereo not given in full),
32%,> 1000 nM,O=C1CCC(N2C(=O)c3cc4c(cc3C2=O)CN(C2CCN(c3ccc([C@@H]5c6ccc(O)cc6CC[C@@H]5c5ccccc5)cc3)CC2)C4)C(=O)N1 (stereo not given in full),
58%,18 nM,"O=C1CCC(N2C(=O)c3cc4c(cc3C2=O)CN(CC(=O)N2CCC3(CC2)CCN(c2ccc([C@H]5c6ccc(O)cc6CC[C@H]5c5ccccc5)cc2)C3)C4)C(=O)N1 (single isomer, unassigned)",
82%,1.4 nM,COc1cc(N2CCC3(CCN(C(=O)CN4Cc5cc6c(cc5C4)C(=O)N(C4CCC(=O)NC4=O)C6=O)CC3)CC2)ccc1[C@@H]1c2ccc3[nH]ncc3c2C[C@@H](C)N1CC(F)F (stereo not given in full),
71%,2.8 nM,O=C1CCC(N2C(=O)c3cc4c(cc3C2=O)CN(CC(=O)N2CC3(CCN(c5ccc([C@@H]6c7ccc(O)cc7CC[C@@H]6c6ccccc6)cc5)CC3)C2)C4)C(=O)N1 (stereo not given in full),
65%,415 nM,O=C1CCC(N2C(=O)c3cc4c(cc3C2=O)CN(CC2CCN(c3ccc([C@@H]5c6ccc(O)cc6CC[C@@H]5c5ccccc5)cc3)CC2)C4)C(=O)N1 (stereo not given in full),
63%,4 nM,O=C1CCC(N2C(=O)c3cc4c(cc3C2=O)CN(CC(=O)N2CC3(CCN(c5ccc([C@@H]6c7ccc(O)cc7CC[C@@H]6c6ccccc6)cc5)C3)C2)C4)C(=O)N1 (stereo not given in full),
58%,393 nM,O=C1CCC(N2C(=O)c3cc4c(cc3C2=O)CN(CC(=O)N2CCCC3(CCN(c5ccc([C@@H]6c7ccc(O)cc7CC[C@@H]6c6ccccc6)cc5)CC3)C2)C4)C(=O)N1 (stereo not given in full),
